Results published in PubChem BioAssay AID1963958 (Molecular Pharmacology Branch, DTP, NCI, 2024).

Tested on: MDA-MB-231 multicell spheroids, viability
Test: Anticancer human tumor MDA-MB-231 cell line growth inhibition [PI3K];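 note: spheroids exposed to agents for seven days before reading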;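 for viability, T/C: percent of vehicle control luminescence with DMSO treated spheroids as 100%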
Settings: for IC50: curve of first compound; for viability, T/C: stronger effect = lower value
Outline: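 Combination activity was assessed by viability in multicellular tumor spheroids carrying HUVEC and MSC components. Agents were tested with PI3K inhibitors from a Cmax-based top dose (or 10 microM) downward in half-log increments.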

[1] = second compound 0.0316 µM, first compound 0.0316 µM
[2] = second compound 0.0316 µM, first compound 0.1 µM
[3] = second compound 0.1 µM, first compound 0.0316 µM
[4] = second compound 0.1 µM, first compound 0.1 µM
[5] = second compound 0.316 µM, first compound 0.0316 µM
[6] = second compound 0.316 µM, first compound 0.1 µM
[7] = second compound 1 µM, first compound 0.0316 µM
[8] = second compound 1 µM, first compound 0.1 µM
[9] = second compound 3.16 µM, first compound 0.0316 µM
[10] = second compound 3.16 µM, first compound 0.1 µM
[11] = second compound 10 µM, first compound 0.0316 µM
[12] = second compound 10 µM, first compound 0.1 µM

In the case of `CC(C)n1nc(-c2ccc3oc(N)nc3c2)c2c(N)ncnc21` + Cc1nc(NC(=O)N2CCCC2C(N)=O)sc1-c1ccnc(C(C)(C)C(F)(F)F)c1, the IC50 (second compound 0.0316 µM) is reported as 42.2 nM, the IC50 (second compound 0.1 µM) is reported as 25.3 nM and the IC50 (second compound 0.316 µM) is reported as 10.9 nM. The IC50 (second compound 1 µM) was 6.29 nM, the IC50 (second compound 3.16 µM) was 4.81 nM and the IC50 (second compound 10 µM) was 3.17 nM. For the same molecule, the viability, T/C (second compound 0.0316 µM, first compound 0.000316 µM) was 94%, the viability, T/C (second compound 0.0316 µM, first compound 0.001 µM) was 85.8% and the viability, T/C (second compound 0.0316 µM, first compound 0.00316 µM) was 80.9%. The viability, T/C (second compound 0.0316 µM, first compound 0.01 µM) was 69.3%, the viability, T/C [1] was 55.3% and the viability, T/C [2] was 35.2%. For the same molecule, the viability, T/C (second compound 0.1 µM, first compound 0.000316 µM) was 85.7%, the viability, T/C (second compound 0.1 µM, first compound 0.001 µM) was 85.7% and the viability, T/C (second compound 0.1 µM, first compound 0.00316 µM) was 71.2%. The viability, T/C (second compound 0.1 µM, first compound 0.01 µM) was 65.2%, the viability, T/C [3] was 45.9% and the viability, T/C [4] was 31.3%. For the same molecule, the viability, T/C (second compound 0.316 µM, first compound 0.000316 µM) was 73%, the viability, T/C (second compound 0.316 µM, first compound 0.001 µM) was 72% and the viability, T/C (second compound 0.316 µM, first compound 0.00316 µM) was 60.2%. For the same molecule, the viability, T/C (second compound 0.316 µM, first compound 0.01 µM) was 50.6%, the viability, T/C [5] was 39.6% and the viability, T/C [6] was 27.7%. For the same molecule, the viability, T/C (second compound 1 µM, first compound 0.000316 µM) was 68.3%, the viability, T/C (second compound 1 µM, first compound 0.001 µM) was 58% and the viability, T/C (second compound 1 µM, first compound 0.00316 µM) was 55.5%. For the same molecule, the viability, T/C (second compound 1 µM, first compound 0.01 µM) was 49.1%, the viability, T/C [7] was 35% and the viability, T/C [8] was 23.6%. The viability, T/C (second compound 3.16 µM, first compound 0.000316 µM) was 66.4%, the viability, T/C (second compound 3.16 µM, first compound 0.001 µM) was 63.2% and the viability, T/C (second compound 3.16 µM, first compound 0.00316 µM) was 54.1%. It also gave a viability, T/C (second compound 3.16 µM, first compound 0.01 µM) of 41.4%, a viability, T/C [9] of 34.8% and a viability, T/C [10] of 25.3%. The viability, T/C (second compound 10 µM, first compound 0.000316 µM) was 62.3%, the viability, T/C (second compound 10 µM, first compound 0.001 µM) was 56% and the viability, T/C (second compound 10 µM, first compound 0.00316 µM) was 50.4%. The viability, T/C (second compound 10 µM, first compound 0.01 µM) was 43.9%, the viability, T/C [11] was 33.8% and the viability, T/C [12] was 28.5%.
Work on `CC1(C)CCC(CN2CCN(c3ccc(C(=O)NS(=O)(=O)c4ccc(NCC5CCOCC5)c([N+](=O)[O-])c4)c(Oc4cnc5[nH]ccc5c4)c3)CC2)=C(c2ccc(Cl)cc2)C1` + Cc1nc(NC(=O)N2CCCC2C(N)=O)sc1-c1ccnc(C(C)(C)C(F)(F)F)c1 yielded an IC50 (second compound 0.0316 µM) of 6180 nM, an IC50 (second compound 0.1 µM) of 5980 nM and an IC50 (second compound 0.316 µM) of 5800 nM. The IC50 (second compound 1 µM) was 4920 nM, the IC50 (second compound 3.16 µM) was 4360 nM and the IC50 (second compound 10 µM) was 4290 nM. For the same molecule, the viability, T/C [1] was 93.7%, the viability, T/C [2] was 101% and the viability, T/C (second compound 0.0316 µM, first compound 0.316 µM) was 96%. The viability, T/C (second compound 0.0316 µM, first compound 1 µM) was 101%, the viability, T/C (second compound 0.0316 µM, first compound 3.16 µM) was 107% and the viability, T/C (second compound 0.0316 µM, first compound 10 µM) was 14.4%. For the same molecule, the viability, T/C [3] was 89.2%, the viability, T/C [4] was 90.3% and the viability, T/C (second compound 0.1 µM, first compound 0.316 µM) was 87.7%. For the same molecule, the viability, T/C (second compound 0.1 µM, first compound 1 µM) was 90.8%, the viability, T/C (second compound 0.1 µM, first compound 3.16 µM) was 97% and the viability, T/C (second compound 0.1 µM, first compound 10 µM) was 16.8%. The viability, T/C [5] was 77.9%, the viability, T/C [6] was 79.6% and the viability, T/C (second compound 0.316 µM, first compound 0.316 µM) was 79.2%. For the same molecule, the viability, T/C (second compound 0.316 µM, first compound 1 µM) was 79.6%, the viability, T/C (second compound 0.316 µM, first compound 3.16 µM) was 83.5% and the viability, T/C (second compound 0.316 µM, first compound 10 µM) was 22.9%. For the same molecule, the viability, T/C [7] was 72.5%, the viability, T/C [8] was 73.4% and the viability, T/C (second compound 1 µM, first compound 0.316 µM) was 71.7%. For the same molecule, the viability, T/C (second compound 1 µM, first compound 1 µM) was 73.4%, the viability, T/C (second compound 1 µM, first compound 3.16 µM) was 74% and the viability, T/C (second compound 1 µM, first compound 10 µM) was 13.1%. The viability, T/C [9] was 69.8%, the viability, T/C [10] was 65.9% and the viability, T/C (second compound 3.16 µM, first compound 0.316 µM) was 67.7%. The viability, T/C (second compound 3.16 µM, first compound 1 µM) was 72.7%, the viability, T/C (second compound 3.16 µM, first compound 3.16 µM) was 66% and the viability, T/C (second compound 3.16 µM, first compound 10 µM) was 8.11%. The viability, T/C [11] was 65.8%, the viability, T/C [12] was 67.4% and the viability, T/C (second compound 10 µM, first compound 0.316 µM) was 58.5%. For the same molecule, the viability, T/C (second compound 10 µM, first compound 1 µM) was 63.1%, the viability, T/C (second compound 10 µM, first compound 3.16 µM) was 62% and the viability, T/C (second compound 10 µM, first compound 10 µM) was 16.7%.
